How the values were obtained:
[1] = molecular target: T1, HpaA (Pseudomonas aeruginosa, UniProt Q9HWT7); test: stopped-flow; format: binding
T1 sequence (Q9HWT7 1-520): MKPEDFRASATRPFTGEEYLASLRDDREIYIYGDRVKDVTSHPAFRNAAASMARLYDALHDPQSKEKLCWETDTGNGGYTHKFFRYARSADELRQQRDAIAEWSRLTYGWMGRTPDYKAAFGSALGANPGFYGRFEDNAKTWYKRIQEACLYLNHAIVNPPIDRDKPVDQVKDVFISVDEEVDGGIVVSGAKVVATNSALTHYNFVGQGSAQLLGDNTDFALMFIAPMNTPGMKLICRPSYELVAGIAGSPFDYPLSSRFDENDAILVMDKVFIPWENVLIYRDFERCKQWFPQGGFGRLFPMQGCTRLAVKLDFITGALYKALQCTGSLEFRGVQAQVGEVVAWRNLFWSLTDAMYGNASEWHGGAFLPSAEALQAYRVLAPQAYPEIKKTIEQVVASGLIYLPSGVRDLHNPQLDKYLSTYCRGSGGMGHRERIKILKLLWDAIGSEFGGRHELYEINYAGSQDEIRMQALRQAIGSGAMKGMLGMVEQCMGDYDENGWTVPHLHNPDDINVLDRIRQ

[2] = molecular target: T2, HpaC (Pseudomonas aeruginosa, UniProt Q9HWT6); test: stopped-flow; format: binding
T2 sequence (Q9HWT6 1-170): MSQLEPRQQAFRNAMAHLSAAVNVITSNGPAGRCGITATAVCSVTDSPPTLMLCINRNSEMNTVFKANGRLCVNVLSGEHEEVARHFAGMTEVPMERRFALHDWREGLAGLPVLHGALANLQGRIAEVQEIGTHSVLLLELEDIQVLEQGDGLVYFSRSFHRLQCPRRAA

[3] = molecular target: HpaA, oxygenase of p-hydroxyphenylacetate 3-hydroxylase (HPAH) from Pseudomonas aeruginosa, N-terminal His-tagged (P. aeruginosa); test: SEC
[4] = molecular target: T1, HpaA; test: absorption spectral titration; format: binding
[5] = molecular target: T2, HpaC; test: fluorimetric titration; format: binding

`Cc1cc2c(cc1C)N(C[C@H](O)[C@H](O)[C@H](O)COP(=O)(O)OP(=O)(O)OC[C@H]1O[C@@H](n3cnc4c(N)ncnc43)[C@H](O)[C@@H]1O)c1[nH]c(=O)[nH]c(=O)c1N2` [FADH^−] showed a Kd [1] of at most 2 µM and a Kd [2] of about 20 µM.
Work on “HpaA, oxygenase of p-hydroxyphenylacetate 3-hydroxylase (HPAH) from Pseudomonas aeruginosa, N-terminal His-tagged (enzyme)” yielded a stoichiometry N [3] of 2.
Molecule `Cc1cc2nc3c(=O)[nH]c(=O)nc-3n(C[C@H](O)[C@H](O)[C@H](O)COP(=O)(O)OP(=O)(O)OC[C@H]3O[C@@H](n4cnc5c(N)ncnc54)[C@H](O)[C@@H]3O)c2cc1C` [FAD] has a Kd [4] of at least 250 µM and a Kd [5] of 3 µM.
